In US20250282720A1, “ALKYLSULFENYL THIOCARBONATES: PRECURSORS TO HYDROPERSULFIDES POTENTLY ATTENUATE OXIDATIVE STRESS” (The Johns Hopkins University, priority 2021, published 2025):

What was measured:
[1] = Decomposition of precursors in the presence of thiol (NAC / N-acetyl cysteine methyl ester), HPLC; format: physicochemical; conditions: 5 equiv NAC, PBS pH 7.4, HPLC
Protocol: Initially, the decomposition of 1a was analyzed in the presence of 5 equiv of N-acetylcysteine (NAC) in PBS (pH 7.4) by HPLC. […] To investigate the mechanism, this reaction was monitored by UPLC-MS. […] Additionally, a small amount of unsymmetrical dialkyl polysulfide (pink highlight, R^1SSnSR^2, n=0-3) is observed, likely formed via NAC reaction with symmetrical dialkyl polysulfides (Scheme 1-5, eq. 7). As expected, a new peak at 5.65 min corresponding to N-acetyl cysteine-thiocarbonate 9a also is observed, confirming thiol attack at the perthiocarbonate carbonyl carbon of 1a to release RSSH. Due to the unstable nature of RSSH under these experimental conditions, the yield of the by-product 9a was measured as an indication of RSSH yield. The observation of RSSH-derived polysulfides formation as major products led us to anticipate the efficient formation of by-product 9a. […] The lower observed yield of 9a is likely due to its further reaction with RSSH under these conditions. […]
To a solution of N-acetyl cysteine methyl ester (500 μM) in pH 7.4 phosphate buffer saline (100 mM) containing DTPA (100 μM), precursor 1a or 8 (100 μM) was added. […] At different time points, an aliquot of the reaction mixture (500 μL) was withdrawn and transferred to pre-cooled 0.1% formic acid (500 μL) and analyzed using HPLC. […]

[2] = system: H9c2 cardiac myoblasts; test: Cytotoxicity study, Sytox Green viability assay; conditions: up to 100 mM, 24 h
Protocol: (§2) H9c2 embryonic rat heart myoblasts were obtained from the American Type Culture Collection. Cells were grown in Dulbecco's minimal essential medium (DMEM), supplemented with fetal bovine serum (FBS) 10%, penicillin 100 U/mL and streptomycin 100 μg/mL. They were propagated in T75-flasks, split before reaching 70-80% confluence (usually every day or every second day), and used within 11 passages. Cells were passaged to tissue culture treated 96-well microtiter plates at the specified density in 180 μL volumes and incubated for 24 h.
Cells were seeded at a density of 1×10^4 cells/well. After 24 h, the media was replaced and compound added in 20 μL volumes using DMSO:H2O (<0.01% DMSO) as the vehicle. Cells were incubated for an additional 24 h before media was removed. Then, 100 μL of media containing 3 μM Sytox Green nucleic acid stain (Invitrogen) was added and the cells were incubated for 2 h before fluorescence readings were obtained at 485Ex/538Em (Step 1). Finally, an additional 100 μL of media containing 3 μM Sytox and 0.2% Triton X-100 was added to permeabilize all cells and incubated for 1 h before fluorescence values measured (Step 2). The relative % cells surviving was calculated as a 100% minus the ratio of the fluorescence value of Step 1 over Step 2 (% cells surviving=100%−(FL538 (Step 1)/FL538 (Step 2)). See FIG. 8.

[3] = system: FA skin fibroblasts (GM04078); test: Cytotoxicity in FA skin fibroblasts; conditions: 24 h of exposure, at least up to 100 μM
From the text: (§1) Initially, we measured the cytotoxicity of AST in FA skin fibroblasts (GM04078), obtained from the Coriell Institute, to ensure that the RSSH donor itself is not cytotoxic. […] We then measured the ability of AST to confer cytoprotection in FA fibroblasts against hydrogen peroxide (H2O2) stress.

[4] = system: H9c2 cardiac myoblasts; test: H9c2 cell protection from H2O2-mediated oxidative stress, CCK-8; format: cell-based, rat; conditions: 50 μM, 4 and 8 h, then H2O2 200 μM
Protocol: The cytoprotective effects of 1a was then measured against oxidative stress.
as §2
Cells were seeded at a density of 5×10^3 cells/well. After 24 h, precursor 1a or by-product 4a was added at 20 μL volumes using DMSO:H2O (<0.01% DMSO as the vehicle). Cells were incubated for 2 h before media was removed and the cells gently washed with PBS (pH 7.4). Then, 180 μL of fresh media and 20 μL H2O2 diluted into H2O were added and cells were incubated for an additional 2 h. At the completion of H2O2 exposure, each well is carefully washed 3 times with PBS (pH 7.4) before adding 100 μL of media, without-FBS, containing 10% v/v CCK-8 (Dojindo) and incubated for 3 h prior to obtaining absorbance values at 450 nm. The relative % viability was calculated as 100 times the ratio of the Abs450 (pre-treated, H2O2-exposed) over Abs450 (vehicle-treated, non H2O2-exposed).

[5] = system: FA fibroblasts (GM04078); test: Cytoprotection against H2O2 stress in FA fibroblasts, CCK8; format: cell-based, human; conditions: 4 h pretreatment, H2O2 75 μM for 4 h
Protocol: FIG. 10A, pretreatment of AST with varying concentrations in FA fibroblasts (GM04078, Coriell Institute) for 4 h followed by 4 h treatment with H2O2. Viability was measured using CCK8 assay. FIG. 10B, pretreatment of AST with varying concentrations in FA fibroblasts for 4 h followed by treatment with erastin for 24 h. […] Group comparisons are determined by a one-way analysis of variance (ANOVA) with Dunnet's correction post-hoc test using GraphPad Prism 8;
as §1

Structure (SMILES)	t1/2 of decomposition in the presence of thiol [1] [min]	toxicity toward H9c2 cells [2]	toxicity toward FA fibroblasts [3]	cytoprotection against H2O2-mediated toxicity (by-product control) [4]	cytoprotection against H2O2 stress [5]
COC(=O)C(NC(C)=O)C(C)(C)SSC(=O)OCc1ccccc1 (centres unmarked) [Precursor 8, Methyl 2-acetamido-3-(((benzyloxy)carbonyl)disulfaneyl)-3-methylbutanoate]	4.0 ± 0.7	–	–	–	–
Oc1ccccc1 [Precursor 4a, phenol]	–	no toxicity	do not show toxicity	no protective effect	ineffective
